Where “and” joins values, the source holds several entries; their conditions need not be identical. Equal entries are not always repeated.
Experiments:
[1] = Crystal
[2] = Molar enthalpy of transition or fusion; details: Crystal; DSC

c1ccc2cc3ccccc3cc2c1 [anthracene]
[1]
Details	vapor or sublimation pressure
343.29 K	0.000192 kPa
343.3 K	0.000182 kPa
343.31 K	0.000197 kPa
345.76 K	0.000235 kPa and 0.00024 kPa
345.79 K	0.000247 kPa
348.21 K	0.000317 kPa and 0.000305 kPa
348.27 K	0.000297 kPa
350.75 K	0.000392 kPa
350.76 K	0.000401 kPa
350.79 K	0.000384 kPa
353.04 K	0.000479 kPa and 0.000485 kPa
353.19 K	0.000498 kPa
355.68 K	0.00063 kPa
355.73 K	0.000626 kPa
355.74 K	0.000623 kPa
358.14 K	0.000799 kPa
358.15 K	0.000784 kPa
358.18 K	0.000798 kPa
360.63 K	0.001 kPa
360.66 K	0.000992 kPa
360.68 K	0.000998 kPa
362.95 K	0.00123 kPa and 0.001232 kPa
363.13 K	0.001244 kPa
365.54 K	0.00155 kPa
365.55 K	0.001551 kPa
365.56 K	0.001562 kPa
367.97 K	0.001927 kPa and 0.001947 kPa
367.98 K	0.001941 kPa
370.43 K	0.002398 kPa
370.44 K	0.002418 kPa and 0.002409 kPa
372.85 K	0.00298 kPa
372.89 K	0.002973 kPa and 0.002978 kPa

c1ccc2cc3sccc3cc2c1 [naphtho[2,3-b]thiophene]
Details	Normal melting temperature [°C]
[1], DTA	188.6

Details	Molar enthalpy of transition or fusion [kcal/mol]
[2]	5.09

— the NIST ThermoML archive (doi:10.1016/j.jct.2018.08.034)
